Patent US20160303040A1, “INJECTABLE PHARMACEUTICAL COMPOSITIONS COMPRISING PROSTACYCLIN” (RIGSHOSPITALET, priority 2013, published 2016)

Key:
[1] = cited from earlier work
[2] = 10 days short term stability study on iloprost standards diluted with isotonic sodium chloride; type: physicochemical; settings: stored at 5° C., after dilution with isotonic sodium chloride solution
Method: A: A concentration iloprost equal to 20 μg/ml (was used for the optimization of the HPLC procedure, UV 210 nm)
B: 0.9% sodium chloride in milliQ water (0.9 g NaCl in 100 ml water)
C: 100 μl of A and 900 μl of B: iloprost concentration equal to 2 μg/ml
A 10 days short term stability study was conducted on the standards The test solutions were prepared 11 May 2012 and analysed 11 May 2012, n=2, 15 May 2012, and 21 May 2012 and finally […]. Between the days of analysis the samples were stored at 5° C.

short term stability [2]: No indication on major instability
Structure (SMILES): CC#CCC(C)[C@H](O)/C=C/[C@@H]1[C@H]2C/C(=C/CCCC(=O)O)C[C@H]2C[C@H]1O (stereo partly drawn) [Iloprost, 5-{(E)-(1S,5S,6R,7R)-7-hydroxy-6[(E)-(3S,4RS)-3-hydroxy-4-methyl-1-octen-6-inyl]-bi-cyclo[3.3.0]octan-3-ylidene}pentanoic acid]
solubility in water [1]: very slightly soluble
